# Measurements from the supplement of paper PMC10307832.
# Compound: CC(C)C[C@@H](C(=O)N[C@H](C(=O)OC1CCCC1)c1ccccc1)[C@H](O)C(=O)NO [Tosedostat] + CC(=O)c1c(C)c2cnc(Nc3ccc(N4CCNCC4)cn3)nc2n(C2CCCC2)c1=O [Palbociclib] (partner 0.5 µM)
# Assay: relative viability (nuclei count vs DMSO), 5 days (fraction); higher = more cells survive
# Details: first compound 0.02 µM
# Outline: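 After 5 days of treatment, lung cancer cells in 1536-well plates were fixed and stained in a single step (final 0.05% Triton X-100, 1% formaldehyde, 1 ug/ml Hoechst) and their nuclei counted on 4× images. Treatment had been applied by pin tool the day after seeding as one drug alone or as a fixed anchor-drug dose with five library-drug doses (not always all listed) in √10 steps. Relative viability is the nuclei count of treated wells divided by that of vehicle wells, and values are medians of duplicate plates.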
row,Cell Line,relative viability
1,ABC-1,0.826
2,NCI-H358,0.141
3,PC-3 [JPC-3],0.538
4,LOU-NH91,0.549

# Same assay, conditions: first compound 0.06325 µM
row,Cell Line,relative viability
1,NCI-H322M,0.473
2,NCI-H1437,0.32
3,PC-14,0.469
4,CAL-12T,0.362
5,NCI-H1734,0.372
6,EPLC-272H,0.311
7,NCI-H3122,0.211
8,NCI-H2009,0.212
9,NCI-H520,0.236
10,NCI-H1651,0.525
11,NCI-H1993,0.688
12,NCI-H2228,0.865
13,HCC-15,0.688
14,NCI-H1793,0.325
15,EKVX,0.374
16,LC-2-ad,0.496
17,NCI-H1666,0.696
18,NCI-H1944,0.356
19,NCI-H2085,0.498
20,NCI-H1650,0.39
21,ABC-1,0.706
22,NCI-H358,0.134
23,PC-3 [JPC-3],0.547
24,LOU-NH91,0.458

# Same assay, conditions: first compound 0.2 µM
row,Cell Line,relative viability
1,NCI-H322M,0.459
2,NCI-H1437,0.357
3,PC-14,0.502
4,CAL-12T,0.312
5,NCI-H1734,0.354
6,EPLC-272H,0.348
7,NCI-H3122,0.216
8,NCI-H2009,0.254
9,NCI-H520,0.239
10,NCI-H1651,0.511
11,NCI-H1993,0.698
12,NCI-H2228,0.821
13,HCC-15,0.572
14,NCI-H1793,0.339
15,EKVX,0.403
16,LC-2-ad,0.525
17,NCI-H1666,0.61
18,NCI-H1944,0.386
19,NCI-H2085,0.474
20,NCI-H1650,0.376
21,ABC-1,0.704
22,NCI-H358,0.131
23,PC-3 [JPC-3],0.554
24,LOU-NH91,0.545

# Same assay, conditions: first compound 0.6325 µM
row,Cell Line,relative viability
1,NCI-H322M,0.524
2,NCI-H1437,0.353
3,PC-14,0.447
4,CAL-12T,0.299
